Structures can show the parent of a compound that is named as a salt. ± gives the standard error.
Assays:
621-102 (TSC2-deficient) [1] = experiment: relative viability vs DMSO (fraction); higher = less cytotoxic; details: serum: 0.1% FBS, 72 h
UMB1949 (TSC2-deficient) = experiment: as above; details: serum: 0.1% FBS, 72 h;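 further: renal angiomyolipoma cell lines screened in 384-well plates, viability normalized per plate to DMSO-treated cells, each plate carrying 50 nM rapamycin and 1 µM staurosporine controls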
621-102 (TSC2-deficient) [2] = experiment: relative viability vs DMSO; higher = less cytotoxic; details: serum: 10% FBS, 72 h
621-103 (TSC2-rescued) = experiment: as above; details: serum: 10% FBS, 72 h

Compound | relative viability (621-102 (TSC2-deficient) [1]; 0.0128 nM) | relative viability (621-102 (TSC2-deficient) [1]; 0.064 nM) | relative viability (621-102 (TSC2-deficient) [1]; 0.32 nM) | relative viability (621-102 (TSC2-deficient) [1]; 1.6 nM) | relative viability (621-102 (TSC2-deficient) [1]; 8 nM) | relative viability (621-102 (TSC2-deficient) [1]; 40 nM) | relative viability (621-102 (TSC2-deficient) [1]; 200 nM) | relative viability (621-102 (TSC2-deficient) [1]; 1000 nM) | relative viability (621-102 (TSC2-deficient) [1]; 5000 nM) | relative viability (UMB1949 (TSC2-deficient); 0.0128 nM) | relative viability (UMB1949 (TSC2-deficient); 0.064 nM) | relative viability (UMB1949 (TSC2-deficient); 0.32 nM) | relative viability (UMB1949 (TSC2-deficient); 1.6 nM) | relative viability (UMB1949 (TSC2-deficient); 8 nM) | relative viability (UMB1949 (TSC2-deficient); 40 nM) | relative viability (UMB1949 (TSC2-deficient); 200 nM) | relative viability (UMB1949 (TSC2-deficient); 1000 nM) | relative viability (UMB1949 (TSC2-deficient); 5000 nM) | relative viability (621-102 (TSC2-deficient) [2]; 0.0001 µM) [%] | relative viability (621-102 (TSC2-deficient) [2]; 0.001 µM) [%] | relative viability (621-102 (TSC2-deficient) [2]; 0.01 µM) [%] | relative viability (621-102 (TSC2-deficient) [2]; 0.1 µM) [%] | relative viability (621-102 (TSC2-deficient) [2]; 1 µM) [%] | relative viability (621-102 (TSC2-deficient) [2]; 10 µM) [%] | relative viability (621-103 (TSC2-rescued); 0.0001 µM) [%] | relative viability (621-103 (TSC2-rescued); 0.001 µM) [%] | relative viability (621-103 (TSC2-rescued); 0.01 µM) [%] | relative viability (621-103 (TSC2-rescued); 0.1 µM) [%] | relative viability (621-103 (TSC2-rescued); 1 µM) [%] | relative viability (621-103 (TSC2-rescued); 10 µM) [%]
CCN1CCN(Cc2ccc(-c3cc4c(N[C@H](C)c5ccccc5)ncnc4[nH]3)cc2)CC1 [AEE788] | 1.06 | 0.968 | 1.01 | 0.786 | 0.612 | 0.64 | 0.156 | 0.034 | 0.00903 | 1.02 | 0.971 | 1 | 1.07 | 0.964 | 1.01 | 0.767 | 0.305 | 0.00689 | 106 ± 2.1 | 107.3 ± 1 | 106 ± 4.4 | 104 ± 1.6 | 100 ± 3.6 | 36.7 ± 12 | 94.8 ± 1.2 | 107.1 ± 0.38 | 103.4 ± 0.79 | 102 ± 3.6 | 100 ± 3.8 | 10.7 ± 1
O=C(Nc1c[nH]nc1-c1nc2ccc(CN3CCOCC3)cc2[nH]1)NC1CC1 [AT9283] | 1.09 | 0.98 | 0.952 | 0.945 | 0.718 | 0.031 | 0.0179 | 0.00825 | 0.00249 | 1.11 | 1.02 | 0.973 | 0.996 | 0.963 | 0.0359 | 0.0512 | 0.00329 | 0.00115 | 94.6 ± 1.6 | 103.4 ± 0.37 | 106 ± 1.6 | 85.8 ± 4.9 | 53.12 ± 0.43 | 15.2 ± 1.2 | 73 ± 1.1 | 89.4 ± 2.2 | 81.5 ± 2.2 | 71.4 ± 2.8 | 31.5 ± 3.9 | 14.6 ± 0.54
NC(=O)Nc1cc(-c2cccc(F)c2)sc1C(=O)N[C@H]1CCCNC1 [AZD7762] | 0.981 | 0.92 | 0.935 | 0.731 | 0.244 | 0.0116 | 0.00396 | 0.000482 | 0.00108 | 0.976 | 0.981 | 1.07 | 1.08 | 0.341 | 0.00441 | 0.00215 | 0.000402 | 0.00128 | 102 ± 4.3 | 108 ± 1.8 | 88.76 ± 0.17 | 32.13 ± 0.32 | 17.1 ± 0.87 | 6.55 ± 0.31 | 99 ± 1.1 | 98.96 ± 0.94 | 98.3 ± 0.4 | 83.6 ± 0.97 | 22.27 ± 0.029 | 3.24 ± 0.41
O=C(/C=C/c1cccc(S(=O)(=O)Nc2ccccc2)c1)NO [Belinostat(PXD101)] | 1.07 | 1.04 | 1.01 | 1.03 | 1.18 | 0.923 | 0.646 | 0.271 | 0.0621 | 1.11 | 0.925 | 1.01 | 0.986 | 0.987 | 0.854 | 0.277 | 0.00312 | 0.001 | 109 ± 3.7 | 111.1 ± 1.1 | 107 ± 1.1 | 94.4 ± 1.9 | 85.6 ± 1.9 | 44.6 ± 0.66 | 97.7 ± 1.1 | 97 ± 2.6 | 97.46 ± 0.88 | 92.7 ± 1.6 | 77.17 ± 0.11 | 9.88 ± 0.36
CN1CC[C@H](c2c(O)cc(O)c3c(=O)cc(-c4ccccc4Cl)oc23)[C@H](O)C1 [Flavopiridol hydrochloride] | 0.701 | 0.787 | 0.805 | 0.875 | 0.747 | 0.227 | 0.009 | 0.0076 | 0.0171 | 0.977 | 1 | 0.989 | 1.04 | 1.15 | 0.855 | 0.00837 | 0.00534 | 0.00482 |  |  |  |  |  |  |  |  |  |  |  | 
CN1CC[C@H](c2c(O)cc(O)c3c(=O)cc(-c4ccccc4Cl)oc23)[C@H](O)C1 [Flavopiridol(Alvocidib)] | 1.14 | 1.2 | 1.24 | 1.15 | 0.972 | 0.212 | 0.00428 | 0.00239 | 0.00377 | 1.12 | 1.16 | 1.04 | 1.21 | 1.08 | 0.923 | 0.00682 | 0.00291 | 0.00348 |  |  |  |  |  |  |  |  |  |  |  | 
CC(C)C[C@@H](C=O)NC(=O)[C@H](CC(C)C)NC(=O)[C@H](CC(C)C)NC(=O)OCc1ccccc1 [MG132] | 0.611 | 0.586 | 0.383 | 0.272 | 0.148 | 0.00944 | 0.00319 | 0.00253 | 0.0116 | 0.846 | 0.0534 | 0.0466 | 0.00704 | 0.00406 | 0.00242 | 0.00153 | 0.000971 | 0.00561 |  |  |  |  |  |  |  |  |  |  |  | 
Cc1ccc(NC(=O)c2ccc(CN3CCN(C)CC3)cc2)cc1Nc1nc(-c2cccnc2)cs1 [Masitinib(AB1010)] | 0.869 | 0.9 | 0.886 | 0.951 | 0.909 | 0.82 | 0.683 | 0.277 | 0.0135 | 1.09 | 1.21 | 1.16 | 1.18 | 1.09 | 1.19 | 0.96 | 0.156 | 0.0043 |  |  |  |  |  |  |  |  |  |  |  | 
Nc1ccccc1NC(=O)c1ccc(CNc2nccc(-c3cccnc3)n2)cc1 [Mocetinostat] | 0.964 | 0.98 | 0.857 | 0.954 | 0.735 | 0.401 | 0.174 | 0.084 | 0.00442 | 1.24 | 1.09 | 1.05 | 1.02 | 0.951 | 0.578 | 0.0241 | 0.00165 | 0.00203 |  |  |  |  |  |  |  |  |  |  |  | 
Cc1[nH]c2ccccc2c1CCNCc1ccc(/C=C/C(=O)NO)cc1 [Panobinostat (LBH589)] | 1.34 | 0.935 | 1.1 | 0.909 | 0.458 | 0.228 | 0.0101 | 0.00297 | 0.00203 | 1.08 | 1.02 | 0.955 | 0.779 | 0.0132 | 0.00793 | 0.0069 | 0.00422 | 0.00261 |  |  |  |  |  |  |  |  |  |  |  | 
CO[C@H]1C[C@@H]2CC[C@@H](C)[C@@](O)(O2)C(=O)C(=O)N2CCCC[C@H]2C(=O)O[C@H]([C@H](C)C[C@@H]2CC[C@@H](O)[C@H](OC)C2)CC(=O)[C@H](C)/C=C(\C)[C@@H](O)[C@@H](OC)C(=O)[C@H](C)C[C@H](C)/C=C/C=C/C=C/1C [Rapamycin(Sirolimus)] | 0.506 | 0.495 | 0.584 | 0.441 | 0.385 | 0.388 | 0.254 | 0.277 | 0.222 | 0.874 | 0.825 | 0.847 | 0.773 | 0.818 | 0.841 | 0.593 | 0.466 | 0.364 |  |  |  |  |  |  |  |  |  |  |  | 
